Some test systems named below: ACHN renal; DMS 114 small cell lung; DMS 273 small cell lung; HOP-62 NSCLC; M14 melanoma; MALME-3M melanoma; RPMI-8226 leukemia; SK-MEL-28 melanoma; SN12C renal; SNB-78 CNS; T-47D breast.
What all share (assay): growth of human tumour cells (NCI), 48 h

Several values for one entry are separate records, joined by “and”; a condition that tells them apart may be missing. Equal entries are not always repeated.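 96-well plates; 48 h exposure; 5 concentrations. Endpoints by linear interpolation between flanking doses. Not reached: highest tested concentration assigned. GI50: concentration for 50% inhibition of growth. TGI: total growth inhibition.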

`O=C1CCC(=O)C12CCc1cccc(O)c12`: the TGI in the assay on ACHN renal, in the assay on DMS 114 small cell lung, in the assay with DMS 273 small cell lung, with HOP-62 NSCLC, with M14 melanoma and with MALME-3M melanoma was above 100 µM throughout. Besides, the TGI in the assay on RPMI-8226 leukemia, with SK-MEL-28 melanoma, with SN12C renal and with SNB-78 CNS was above 100 µM throughout.

Regarding `COc1ccc(/C=C/C(C(=O)O)C(=O)O)cc1`, the TGI with ACHN renal, in the assay with DMS 114 small cell lung, in the assay with DMS 273 small cell lung, in the assay with HOP-62 NSCLC, in the assay with M14 melanoma and in the assay on MALME-3M melanoma was above 100 µM throughout. Moreover, the TGI in the assay with RPMI-8226 leukemia, in the assay with SK-MEL-28 melanoma, in the assay with SN12C renal and in the assay with SNB-78 CNS was above 100 µM throughout.

With `O=c1c2cccnc2ncn1CCCN1CCOCC1`, the TGI with ACHN renal, with DMS 114 small cell lung, in the assay on DMS 273 small cell lung, in the assay with HOP-62 NSCLC, with M14 melanoma and in the assay on MALME-3M melanoma was above 100 µM throughout. Moreover, the TGI in the assay on SK-MEL-28 melanoma, in the assay with SN12C renal and in the assay on SNB-78 CNS was above 100 µM throughout.

Take `CN(C)CCNC(=O)c1cccc2c1nc(-c1ccccn1)c1ccccc12`: the TGI in the assay on ACHN renal came to 35.3 µM; in the assay on DMS 114 small cell lung it was 36.3 µM; in the assay on DMS 273 small cell lung it was 29.9 µM; in the assay on HOP-62 NSCLC, 36.2 µM; in the assay on M14 melanoma, 32.2 µM; in the assay with SK-MEL-28 melanoma it was 29.9 µM. Also, the TGI in the assay with SN12C renal was above 100 µM; in the assay on SNB-78 CNS, 67.9 µM.

With `Cc1ccc([Se][Se]c2ccc(C)cc2)cc1`, the TGI in the assay with ACHN renal was above 100 µM; in the assay on DMS 114 small cell lung, 57 µM; with DMS 273 small cell lung, 32.4 µM; in the assay with HOP-62 NSCLC, above 100 µM; in the assay on MALME-3M melanoma it was above 100 µM; with RPMI-8226 leukemia it was 31.8 µM. Further, the TGI was 81.3 µM in the assay on SK-MEL-28 melanoma, above 100 µM with SN12C renal and 87.6 µM in the assay with SNB-78 CNS.

For `CC1=C(c2cc(C(=O)Nc3cccc(C(F)(F)F)c3)nc(NC#N)n2)Sc2ccccc2N1`, the TGI in the assay with ACHN renal, with DMS 114 small cell lung, in the assay with DMS 273 small cell lung, in the assay with HOP-62 NSCLC, in the assay with M14 melanoma and in the assay on MALME-3M melanoma was above 100 µM throughout. In addition, the TGI in the assay with RPMI-8226 leukemia, in the assay on SK-MEL-28 melanoma, in the assay on SN12C renal and with SNB-78 CNS was above 100 µM each time.

On to `CCCCCCCCCC(=O)N[C@H]1CCc2cc(OC)c(OC)c(OC)c2-c2ccc(SC)c(=O)cc21`, for which the TGI with ACHN renal is above 100 µM; with DMS 114 small cell lung, 0.0403 µM; with DMS 273 small cell lung, 0.295 µM; in the assay on SN12C renal, 19.6 µM; in the assay with SNB-78 CNS it was 38.9 µM.

Regarding `O=C1c2ccccc2C2(O)Oc3cccc(O)c3C12O` (centres undefined), the TGI in the assay on ACHN renal, in the assay on DMS 114 small cell lung, with DMS 273 small cell lung, in the assay on HOP-62 NSCLC, in the assay with M14 melanoma and in the assay with MALME-3M melanoma was above 100 µM in each case. The TGI with RPMI-8226 leukemia, with SK-MEL-28 melanoma, in the assay on SN12C renal and in the assay with SNB-78 CNS was above 100 µM throughout.

For `CC(C)c1ccc(O)c(=O)cc1`, the GI50 in the assay with ACHN renal is 4.46 µM; in the assay with HOP-62 NSCLC it was 3.75 µM; in the assay with M14 melanoma, 16.3 µM; in the assay with MALME-3M melanoma, 19.9 µM; with RPMI-8226 leukemia it was 6.35 µM; with SN12C renal it was 5.85 µM. The GI50 in the assay with T-47D breast is 21 µM. Further, the TGI was above 68.5 µM with ACHN renal; 11.5 µM in the assay on DMS 114 small cell lung; above 46.3 µM in the assay with DMS 273 small cell lung; above 100 µM in the assay on HOP-62 NSCLC; 40.6 µM in the assay on M14 melanoma; > 72 µM and 66.6 µM in the assay with MALME-3M melanoma. Further, the TGI in the assay with RPMI-8226 leukemia is above 80.5 µM; with SK-MEL-28 melanoma it was above 100 µM; in the assay on SN12C renal, above 100 µM; in the assay on SNB-78 CNS, above 91.1 µM.

For `COc1cccc2c1C(=O)c1c(O)c3c(c(O)c1C2=O)C[C@@](O)(/C(C)=N\O)C[C@@H]3OC1CC(N)C(O)C(C)O1` (some centres undefined), the TGI in the assay with ACHN renal was 10.8 µM; in the assay with DMS 114 small cell lung, 2.58 µM; in the assay with DMS 273 small cell lung it was 4.52 µM; with HOP-62 NSCLC, 6.46 µM; in the assay on M14 melanoma, 6.78 µM; in the assay with MALME-3M melanoma, 2.41 µM. The TGI came to 8.33 µM with RPMI-8226 leukemia; 3.98 µM with SK-MEL-28 melanoma; 13.1 µM in the assay on SN12C renal; 8.2 µM in the assay with SNB-78 CNS; 11 µM in the assay on T-47D breast.

For `COc1ccc(S(=O)(=O)N/N=C(\C)CN2C(=O)c3ccccc3C2=O)cc1`, the TGI with ACHN renal, with DMS 114 small cell lung, with DMS 273 small cell lung, in the assay on HOP-62 NSCLC, in the assay on M14 melanoma and in the assay with MALME-3M melanoma was above 100 µM in each case. Besides, the TGI in the assay with RPMI-8226 leukemia, in the assay on SK-MEL-28 melanoma, in the assay with SN12C renal and in the assay with SNB-78 CNS was above 100 µM in each case.

With `O=C1CCC2CCOc3ccc(O)c1c32` (centres undefined), the TGI with ACHN renal, with DMS 114 small cell lung, in the assay with DMS 273 small cell lung, in the assay with HOP-62 NSCLC, in the assay with M14 melanoma and in the assay with MALME-3M melanoma was above 100 µM throughout. The TGI in the assay on RPMI-8226 leukemia, in the assay with SK-MEL-28 melanoma, in the assay with SN12C renal and with SNB-78 CNS was above 100 µM each time.

In the case of `Cc1ccc(N(C(=O)CC(=O)N2N=C(c3ccccc3)C(N=Nc3ccc([N+](=O)[O-])cc3)C2=O)C(=O)c2ccc(Cl)cc2)cc1` (centres undefined), the TGI was above 100 µM with ACHN renal; above 51.1 µM with DMS 114 small cell lung; 20.3 µM in the assay on DMS 273 small cell lung; 29.8 µM in the assay with HOP-62 NSCLC; 18.4 µM with M14 melanoma; above 100 µM in the assay with MALME-3M melanoma. Besides, the TGI with RPMI-8226 leukemia is above 59.1 µM; in the assay on SK-MEL-28 melanoma it was above 100 µM; in the assay on SN12C renal, above 81.1 µM; in the assay on SNB-78 CNS it was above 100 µM.

Consider `Cc1cccc(N2C(=O)C(=O)C(c3nc4ccccc4s3)C(=O)C2=O)c1C`, for which the TGI in the assay with ACHN renal, with DMS 114 small cell lung, in the assay on DMS 273 small cell lung, with HOP-62 NSCLC, in the assay with M14 melanoma and with MALME-3M melanoma was above 100 µM in each case. Besides, the TGI in the assay on RPMI-8226 leukemia, in the assay on SK-MEL-28 melanoma, in the assay with SN12C renal and in the assay on SNB-78 CNS was above 100 µM throughout.

In the case of `COC1(OC)c2ccccc2C2(O)c3ccccc3C(=O)C12` (centres undefined), the TGI was above 100 µM in the assay on ACHN renal; above 100 µM with DMS 114 small cell lung; above 100 µM in the assay with DMS 273 small cell lung; above 100 µM in the assay with M14 melanoma; above 100 µM with MALME-3M melanoma; 62.5 µM with RPMI-8226 leukemia. For the same compound, the TGI in the assay on SK-MEL-28 melanoma, with SN12C renal and with SNB-78 CNS was above 100 µM throughout.

Take `Cc1nn(C)c(=O)c2nn(-c3ccccc3)c(C)c12`: the TGI with ACHN renal, with DMS 114 small cell lung, in the assay on DMS 273 small cell lung, in the assay with HOP-62 NSCLC, in the assay on M14 melanoma and in the assay with MALME-3M melanoma was above 100 µM throughout. Moreover, the TGI in the assay with RPMI-8226 leukemia, in the assay on SK-MEL-28 melanoma, in the assay on SN12C renal and with SNB-78 CNS was above 100 µM in each case.

Turning to `C=CCC(C)(C(=O)NCCC)C(=O)c1ccccc1O` (centres undefined), the TGI in the assay on ACHN renal, in the assay on DMS 114 small cell lung, in the assay on DMS 273 small cell lung, with HOP-62 NSCLC, in the assay on M14 melanoma and with MALME-3M melanoma was above 100 µM throughout. Further, the TGI in the assay on RPMI-8226 leukemia, in the assay on SK-MEL-28 melanoma, in the assay with SN12C renal and in the assay with SNB-78 CNS was above 100 µM throughout.

Consider `O=C(/C=C/c1ccc(Cl)cc1)c1ccncc1`, for which the TGI with ACHN renal, in the assay with DMS 114 small cell lung, in the assay on DMS 273 small cell lung, with HOP-62 NSCLC, in the assay on M14 melanoma and in the assay with MALME-3M melanoma was above 100 µM in each case. In addition, the TGI with RPMI-8226 leukemia, in the assay with SK-MEL-28 melanoma, in the assay with SN12C renal and in the assay with SNB-78 CNS was above 100 µM in each case.

Turning to `C=CCNC(=S)OCCCCCCCCCC`, the TGI in the assay on ACHN renal came out at 32.7 µM; in the assay on DMS 114 small cell lung it was 32.1 µM; in the assay with DMS 273 small cell lung it was 37.3 µM; with HOP-62 NSCLC it was 36.3 µM; with M14 melanoma it was 32.7 µM; in the assay with MALME-3M melanoma it was 33.8 µM. For the same compound, the TGI in the assay with RPMI-8226 leukemia turned out to be 38.9 µM; in the assay with SK-MEL-28 melanoma it was 44.9 µM; with SN12C renal, 31.7 µM; in the assay on SNB-78 CNS, 36.7 µM.

With `O=C(CC(=O)c1ccccc1NC1=Cc2ccccc2C(=O)C1=O)C(=O)NC1=C(Cl)C(=O)c2ccccc2C1=O`, the TGI in the assay with ACHN renal was determined as 10.7 µM; with DMS 114 small cell lung, 4 µM; in the assay with DMS 273 small cell lung, 6.8 µM; in the assay with HOP-62 NSCLC, 17.9 µM; in the assay on M14 melanoma, 4.12 µM; with MALME-3M melanoma, 2.49 µM. Further, the TGI in the assay with RPMI-8226 leukemia is 14.5 µM; with SK-MEL-28 melanoma, 3.71 µM; with SN12C renal it was 3.67 µM; in the assay with SNB-78 CNS it was 8.79 µM; with T-47D breast, 30.6 µM.

The record behind these values is PubChem BioAssay (NCI).
